Source: patent US12686664B2, “SOCE inhibitors and therapeutic uses thereof” (Institut National de la Santé et de la Recherche Médicale …, priority 2020, dated 2026)

Experiments:
Assay type in all cases: cell-based
JOK cells [1] = assay: Migration of JOK cells through HUVEC in transwells; conditions: 5 or 20 μM
Experimental: Migration Protocol. Migration chambers (transwells) (Transwell 5.0 m polycarbonate membrane Costar) were coated overnight (37° C., 5% CO2) with 100 μL of fibronectine solution containing BSA (1 mg/ml) and LHC Basal Medium. Primary HUmbilical Vein Endothelial Cells (HUVEC) were seeded in each transwell (100 000/well) and cultured for 24 hours (37° C., 5% CO2). To evaluate B cell migration, JOK cells were added (300 000/well) to each transwell upper chamber containing RPMI 1640 medium (BioWest) containing 0.5% BSA and SDF1 (200 ng/ml) was added in the bottom chamber. Cells were cultures in the presence or absence of a test compound (GSK-7975-A, SKF-93365 and 6αa) or solvent. After 24 hours (37° C., 5% CO2), migrated cells were collected in the bottom chambers and counted by flow cytometry. The percentages of migration were calculated for each experimental collection.

HUVEC cells = assay: HUVEC cell death (Annexin/Propidium Iodide, flow cytometry); conditions: HUVEC (FIG. 8)
Experimental: FIG. 8. In vitro Effects of 6αa, GSK-7975-A and SKF-93365 on HUVEC Cell Death. […] Cell death was analyzed by flow cytometry following Annexin/Propidium Iodide labeling. Percentages of living cells, necrotic cells and apoptotic cells submitted to GSK-7975A (A), SKF-93365 (B), and 6αa (DAD 3-473) (C) treatment were normalized to the DMSO treatment conditions. Histograms present the amounts of apoptotic cells (annexin/PI positive cells) detected in each experimental condition after treatment with GSK-7975A (D), SKF-93365 (E), and 6αa (DAD 3-473) (F). Data are expressed as mean±SEM of n observations (n=2). Data are analyzed with non parametric Mann Withney analysis, *P<0.05, **P<0.01 and ***P<0.001.

PANC-1 cells [2] = assay: PANC-1 cell apoptosis (AnnexinV-FiTC/PI, flow cytometry); conditions: even at a concentration of 5 μM
Experimental: Analysis of Cell Apoptosis. For PANC-1 cell apoptosis measurements, 5×10^6 cells were seeded in 12 well-plates. Cells were incubated for 24 hours with a test compound (GSK-7975-A, SKF-93365 and 6αa) at two different concentrations (5 and 20 μM) compared to DMSO and untreated cells at 37° C. After washing, cells were taken off plates using an enzyme-free solution. Cells were centrifuged for 5 minutes at 1500 rpm and suspended in […] of PBS containing 1 μL of AnnexinV-FiTC and 1 μL of propidium iodide (PI) for 15 minutes at room temperature in the dark. Evaluation of Annexin and PI staining was performed using a flow cytometer (Navios, Beckman Counter) to evaluate cell apoptosis and necrosis.

[3] = tested on: store-operated Ca^2+ entry in HEK 651 HS1; assay: Store-operated Ca2+ entry in HEK 651 HS1 cell line; conditions: for Effect on amplitude of SOCE peak: % of inhibition (−) or activation
Experimental: (§1) The effects of the molecules developed were tested on PLP-B lymphocytes. Store-operated Ca^2+ entry was induced by depletion of Endoplasmic Reticulum Ca^2+ stores (ER Ca^2+ stores) with thapsigargin (Tg) in a Ca^2+-free medium and measured following the addition of 1.8 mM of CaCl2) in the extracellular medium. The results are compared to the results obtained for known SOCE inhibitors SKF-96365, GSK-7975A, Synta 66.
(§2) Then, effects of the molecule that gave the best results in this test (i.e., molecule 6αa) were assessed in two cancer cell lines, namely: HEK 293 and HEK 651 HS1 tumor cell lines.

PANC-1 cells [4] = assay: PANC-1 cell proliferation (Cell Titer kit); conditions: 5 and 20 μM, 24 hours, to a greater extent than GSK-7975A and SKF-93365
Experimental: (§3) Analysis of Cell Proliferation. For PANC-1 cell proliferation and cell cytotoxicity measurements, […] were seeded in 96 well-plates in 100 μL of DMEM medium. Cells were incubated for 24 hours at 37° C. with 3 different SOCE inhibitors (GSK-7975-A, SKF-93365 and 6αa) at 2 different concentrations (5 and 20 μM) compared to DMSO and untreated cells. Cell proliferation was evaluated using the Cell Titer kit proliferation assay (Promega). Cytotoxicity was evaluated using the Cell Tox green cytotoxicity assay (Promega). All the kits were used following manufacturer recommendations and using a plate reader.

JOK cells [5] = assay: JOK cell viability and apoptosis assays (LIVE/DEAD, Annexin V-FITC/PI)
Experimental: Cell Viability Assays. JOK cells were treated with test compounds (GSK-7975-A, SKF-93365 and 6αa) or solvent for 48 hours. JOK cells viability was then assessed using LIVE/DEAD cell viability assays kit (Abcam). Differentially labeled live and dead cells with fluorescent dyes are analyzed by flow cytometry.
Apoptosis Assay. Apoptosis of JOK cells were determined by Annexin V-FITC/PI staining (Biolegend) using flow cytometry. The percentage of annexin V-FITC and propidium iodide-[…] cells were assessed using Kaluza 1.3.

[6] = tested on: store-operated Ca^2+ entry in HEK 293; assay: Store-operated Ca2+ entry in HEK 293 cell line; conditions: for Effect on amplitude of SOCE peak: % of inhibition (−) or activation
Experimental: as §1, §2

PANC-1 cells [7] = assay: PANC-1 cytotoxicity (Cell Tox green assay); conditions: 5 and 20 μM, 24 hours
Experimental: as §3

SOCE in JOK B cells = assay: Intracellular calcium levels / SOCE in JOK B cells (Fura-2AM, FlexStation 3)
Experimental: Intracellular calcium levels were monitored at 37° C. using the FlexStation 3™ (Molecular Devices, Berkshire, UK), a fluorescence plate reader measuring time-resolved intracellular Ca^2+ concentration in a 96-well format with cells loaded with the dual-wavelength fluorescent calcium-sensitive dye Fura-2AM.
Intracellular Ca^2+ stores were depleted with 2 μM Thapsigargin (an inhibitor of ER SERCA pumps) under Ca^2+-free conditions to determine the magnitude of intracellular Ca^2+ release. Next, the cells were returned to Ca^2+-containing Hepes-buffered solution to measure SOCE. The magnitude of SOCE was estimated as the maximal values of normalized fluorescence ratio following Ca^2+ re-addition.

JOK cells [8] = assay: JOK cell proliferation assay
Experimental: Cell Proliferation Assays. Cultured JOK cells were seeded in 96-well culture plates with or without inhibitors. After 48 hours, cell proliferation was assessed using WST-8 assay (Sigma Aldrich). The absorbance was read at 450 nm on a plate reader.

## COc1ccc(CCOc2ccc(CCn3cnc4ccccc43)cc2)cc1 [6αa DAD 3-473, 1-[4-(4-Methoxyphenethoxy)phenethyl]-1H-benzo[d]imidazole]
JOK cells [1]
  transendothelial migration through HUVEC of JOK cells: does significantly inhibit
HUVEC cells
  death of HUVEC cells: does not induce death
HUVEC cells; 5 or 20 μM, treated for 48 hours
  apoptosis or necrosis of cells: do not induce apoptosis or necrosis
PANC-1 cells [2]
  PANC-1 cell death by apoptosis: induces PANC-1 cells by apoptosis
[3]; 5 μM
  Effect on amplitude of SOCE peak: −5%
[3]; 10 μM
  Effect on amplitude of SOCE peak: −35%
[3]; 50 μM
  Effect on amplitude of SOCE peak: −86%
[3]; average of three assays, ±0.5 μM
  IC50: 25 µM
PANC-1 cells [4]
  PANC-1 proliferation: significantly reduces
JOK cells [5]; JOK B cells (FIG. 7)
  death of B cells: does not induce death
JOK cells [5]; JOK B cells (FIG. 7), 5 or 20 μM, treated for 48 hours
  apoptosis or necrosis of cells: do not induce apoptosis or necrosis
JOK cells [5]; JOK cells
  cell survival: without significant reduction
[6]; 1 μM
  Effect on amplitude of SOCE peak: 8%
[6]; 5 μM
  Effect on amplitude of SOCE peak: −15%
[6]; 10 μM
  Effect on amplitude of SOCE peak: −73%
[6]; 50 μM
  Effect on amplitude of SOCE peak: −91%
[6]; Homo sapiens, HEK293, average of three assays, ±0.5 μM
  IC50: 5.1 µM
PANC-1 cells [7]
  cytotoxicity in cancer PANC-1 cells: induces cytotoxicity
SOCE in JOK B cells
  amplitude of Ca2+ release from the endoplasmic stores: not found to be significantly affected
SOCE in JOK B cells; 5 and 20 μM, compared to control, irrespective of incubation time (5, 15, 30 minutes, 1 hour)
  amplitude of SOCE: significantly reduces
JOK cells [8]
  JOK proliferation: significantly reduces
